molecular target: T1, Peroxisome proliferator-activated receptor gamma (Rattus norvegicus) (UniProt O88275); experiment: Displacement of [3H]rosigliatzone from PPARgamma in rat adipocytes at 0.1 uM; format: cell-based
T1 sequence (whole entry): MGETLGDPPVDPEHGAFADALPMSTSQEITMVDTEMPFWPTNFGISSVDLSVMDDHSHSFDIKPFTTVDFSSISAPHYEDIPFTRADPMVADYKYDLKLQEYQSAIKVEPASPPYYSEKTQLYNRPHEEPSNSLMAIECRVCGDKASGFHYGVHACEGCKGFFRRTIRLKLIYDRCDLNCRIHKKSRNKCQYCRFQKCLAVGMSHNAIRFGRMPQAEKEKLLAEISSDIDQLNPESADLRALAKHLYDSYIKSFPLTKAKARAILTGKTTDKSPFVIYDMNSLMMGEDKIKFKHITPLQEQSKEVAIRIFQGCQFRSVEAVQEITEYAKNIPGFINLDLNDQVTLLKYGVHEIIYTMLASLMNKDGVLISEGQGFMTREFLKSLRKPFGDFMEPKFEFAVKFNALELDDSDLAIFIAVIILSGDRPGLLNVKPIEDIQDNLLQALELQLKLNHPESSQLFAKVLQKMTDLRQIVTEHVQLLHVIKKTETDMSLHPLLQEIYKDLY

Row | Structure (SMILES) | Activity [%]
1 | O=C1C(O)=C(Cc2ccc(OCCOc3cccc4ccccc34)cc2)C(=O)c2ccccc21 | < 20
2 | O=C1C(O)=C(Cc2ccc(OCCOc3ccc(Cl)cc3)cc2)C(=O)c2ccccc21 | < 20
3 | Cc1ccc(OCCOc2ccc(CC3=C(O)C(=O)c4ccccc4C3=O)cc2)cc1 | < 20
4 | O=C1C(O)=C(Cc2ccc(OCCOc3ccc4c(c3)CCC4)cc2)C(=O)c2ccccc21 | < 20

molecular target: T2, Peroxisome proliferator-activated receptor gamma (Rattus norvegicus, UniProt O88275); experiment: Displacement of [3H]rosigliatzone from PPARgamma in rat adipocytes; format: cell-based
T2 sequence (O88275 whole entry): T1 sequence (whole entry)

Row | Structure (SMILES) | IC50 [nM]
5 | COc1ccc(OCCOc2ccc(CC3=C(O)C(=O)c4ccccc4C3=O)cc2)cc1 | 56200
6 | O=C1C(O)=C(Cc2ccc(OCc3ccccc3)cc2)C(=O)c2ccccc21 | 3600
7 | O=C1C(O)=C(Cc2ccc(OCc3ccccc3F)cc2)C(=O)c2ccccc21 | 200
8 | N#Cc1ccc(OCCOc2ccc(CC3=C(O)C(=O)c4ccccc4C3=O)cc2)cc1 | 1900
9 | CCc1ccc(CCOc2ccc(CC3SC(=O)NC3=O)cc2)nc1 (centres undefined) [PIOGLITAZONE] | 700

From ChEMBL document CHEMBL1150396, “New PPARgamma ligands based on 2-hydroxy-1,4-naphthoquinone: computer-aided design, synthesis, and receptor-binding studies” (Bioorg Med Chem Lett, 2008)
